{"source": "ChEMBL document CHEMBL6092194", "about": "“Development of membrane-targeting chalcone derivatives as antibacterial agents against multidrug-resistant bacteria” (Eur J Med Chem, 2024)", "key": {"Cell membrane [1]": {"test_system": "Cell membrane", "experiment": "Disruption of cell membrane in Staphylococcus aureus ATCC43300 assessed as appearance of red fluorescence by PI staining based fluorescence microscopic analysis"}, "Cell membrane [2]": {"test_system": "Cell membrane", "experiment": "Disruption of cell membrane in Staphylococcus aureus ATCC43300 assessed as fold increase in DNA leakage at 8 microg/ml relative to control", "assay_type": "subcellular", "details": "dose 8.0 µg/ml"}, "Enterococcus faecalis": {"test_system": "Enterococcus faecalis", "experiment": "Antibacterial activity against vancomycin susceptible Enterococcus faecalis ATCC29212 by broth microdilution assay", "assay_type": "functional"}, "Escherichia coli [3]": {"test_system": "Escherichia coli", "experiment": "Bactericidal activity against Escherichia coli ATCC25922 assessed as log reduction in bacterial colony at 8 times of MIC measured after 6 hrs by time-kill kinetics assay", "assay_type": "functional"}, "Staphylococcus aureus [4]": {"test_system": "Staphylococcus aureus", "experiment": "Bactericidal activity against Staphylococcus aureus ATCC43300 assessed as elimination of bacteria at 8 microg/ml measured within 6 hrs by time-kill kinetics assay relative to control", "assay_type": "functional", "details": "dose 8 µg/ml"}, "Cell membrane [5]": {"test_system": "Cell membrane", "experiment": "Disruption of cell membrane in Escherichia coli ATCC25922 assessed as increase in protein leakage", "assay_type": "subcellular", "details": "dose 1-8 µg/ml"}, "Cell membrane [6]": {"test_system": "Cell membrane", "experiment": "Induction of inner membrane permeabilization in Staphylococcus aureus ATCC43300 assessed as increase in fluorescence intensity incubated for 20 mins by PI uptake assay", "assay_type": "subcellular", "details": "dose 0.5-8 µg/ml"}, "Escherichia coli [7]": {"test_system": "Escherichia coli", "experiment": "Bactericidal activity against Escherichia coli ATCC25922 in Mueller Hinton Broth", "assay_type": "functional"}, "Cell membrane [8]": {"test_system": "Cell membrane", "experiment": "Induction of cytoplasmic membrane depolarization in Staphylococcus aureus ATCC43300 assessed as fold increase in fluorescence intensity at 4 microg/ml measured after 24 mins by DiSC3(5) dye-based fluorescence assay relative to negative control", "details": "dose 4.0 µg/ml"}, "Escherichia coli [9]": {"test_system": "Escherichia coli", "experiment": "Antibacterial activity against Escherichia coli ATCC25922 infected in sepsis mouse model assessed as log reduction in bacterial load in liver at 5 mg/kg pre-infected with bacteria for 1 hrs followed by compound administration at 12 hrs interval for 2 days relative to control", "assay_type": "functional", "details": "time 2 day"}, "Cell membrane [10]": {"test_system": "Cell membrane", "experiment": "Induction of cytoplasmic membrane depolarization in Staphylococcus aureus ATCC43300 assessed as increase in fluorescence intensity measured after 24 mins by DiSC3(5) dye-based fluorescence assay", "details": "dose 0.5-8 µg/ml"}, "Escherichia coli [11]": {"test_system": "Escherichia coli", "experiment": "Antibiofilm activity against Escherichia coli ATCC25922 assessed as inhibition of biofilm formation", "assay_type": "functional, organism-based"}, "[12]": {"experiment": "Cytotoxicity against human L02 cells assessed as cell survival at 16 microg/ml by CCK8 assay relative to control", "assay_type": "toxicity, cell-based", "details": "at 16 µg/mL, read-out: Survival"}, "Staphylococcus aureus [13]": {"test_system": "Staphylococcus aureus", "experiment": "Antibacterial activity against Staphylococcus aureus ATCC43300 infected in sepsis mouse model assessed as log reduction in bacterial load in blood at 10 mg/kg pre-infected with bacteria for 1 hrs followed by compound administration at 12 hrs interval for 2 days relative to control", "assay_type": "functional", "details": "time 2 day"}, "Staphylococcus aureus [14]": {"test_system": "Staphylococcus aureus", "experiment": "Disruption of preformed biofilm in Staphylococcus aureus ATCC43300 assessed as eradication of biofilm at 32 microg/ml relative to control", "assay_type": "functional", "details": "dose 32 µg/ml"}, "Cell membrane [15]": {"test_system": "Cell membrane", "experiment": "Disruption of cell membrane in Escherichia coli ATCC25922 assessed as appearance of blue fluorescence by DAPI staining based fluorescence microscopic analysis", "assay_type": "subcellular"}, "[16]": {"experiment": "Hemolytic activity in red blood cells (unknown origin)", "assay_type": "toxicity, cell-based, Erythrocyte"}, "Cell membrane [17]": {"test_system": "Cell membrane", "experiment": "Disruption of cell membrane in Staphylococcus aureus ATCC43300 assessed as increase in intracellular ROS level by measuring fold increase in fluorescence intensity at 8 microg/ml by DCFH-DA staining based fluorescence analysis relative to blank control group", "details": "dose 8.0 µg/ml"}, "Escherichia coli [18]": {"test_system": "Escherichia coli", "experiment": "Antibacterial activity against Escherichia coli ATCC25922 infected in sepsis mouse model assessed as log reduction in bacterial load in kidney at 5 mg/kg pre-infected with bacteria for 1 hrs followed by compound administration at 12 hrs interval for 2 days relative to control", "assay_type": "functional", "details": "time 2 day"}, "Pseudomonas aeruginosa": {"test_system": "Pseudomonas aeruginosa", "experiment": "Antibacterial activity against penicillin-susceptible Pseudomonas aeruginosa ATCC27853 by broth microdilution method", "assay_type": "functional"}, "Escherichia coli [19]": {"test_system": "Escherichia coli", "experiment": "Induction of morphological changes in Escherichia coli ATCC25922 assessed as collapse of cell membrane by scanning electron microscopic analysis", "assay_type": "functional, organism-based"}, "Staphylococcus aureus [20]": {"test_system": "Staphylococcus aureus", "experiment": "Antibacterial activity against Staphylococcus aureus ATCC43300 infected in sepsis mouse model assessed as reduction in inflammatory cell infiltration in kidney at 10 mg/kg pre-infected with bacteria for 1 hrs followed by compound administration at 12 hrs interval for 2 days by H and E staining based analysis", "assay_type": "functional, organism-based", "details": "time 2.0 day"}, "[21]": {"experiment": "Ratio of MBC for Staphylococcus aureus ATCC43300 measured after 6 hrs in presence of 50% plasma to MBC for Staphylococcus aureus ATCC43300 in Mueller Hinton Broth", "assay_type": "functional"}, "Staphylococcus aureus [22]": {"test_system": "Staphylococcus aureus", "experiment": "Bactericidal activity against Staphylococcus aureus ATCC43300 in presence of 50% blood", "assay_type": "functional"}, "Staphylococcus aureus [23]": {"test_system": "Staphylococcus aureus", "experiment": "Drug resistance, ratio of MIC for Staphylococcus aureus ATCC43300 measured after 20 passages to MIC for Staphylococcus aureus ATCC43300 measured after first exposure", "assay_type": "functional"}, "Escherichia coli [24]": {"test_system": "Escherichia coli", "experiment": "Antibacterial activity against Escherichia coli ATCC25922 infected in sepsis mouse model assessed as reduction in spleen damage at 5 to 10 mg/kg pre-infected with bacteria for 1 hrs followed by compound administration at 12 hrs interval for 2 days by H and E staining based analysis", "assay_type": "functional, organism-based", "details": "dose 5-10 mg/kg, time 2.0 day"}, "Cell membrane [25]": {"test_system": "Cell membrane", "experiment": "Disruption of cell membrane in Staphylococcus aureus ATCC43300 assessed as increase in intracellular ROS level by DCFH-DA staining based fluorescence analysis", "assay_type": "subcellular", "details": "dose 1-8 µg/ml"}, "Cell membrane [26]": {"test_system": "Cell membrane", "experiment": "Induction of cytoplasmic membrane depolarization in Staphylococcus aureus ATCC43300 assessed as increase in fluorescence intensity at 0.5 microg/ml measured after 24 mins by DiSC3(5) dye-based fluorescence assay", "details": "dose 0.5 µg/ml"}, "[27]": {"experiment": "Selectivity index, ratio of HC50 for hemolytic activity in red blood cells (unknown origin) to MIC for antibacterial activity against penicillin-susceptible Escherichia coli ATCC25922", "assay_type": "toxicity, cell-based, RBC", "details": "read-out: Selectivity Index"}, "Staphylococcus aureus [28]": {"test_system": "Staphylococcus aureus", "experiment": "Selectivity ratio of MBC for Staphylococcus aureus ATCC43300 in presence of 50% blood to MBC for Staphylococcus aureus ATCC43300 in Mueller Hinton Broth", "assay_type": "functional"}, "Staphylococcus aureus [29]": {"test_system": "Staphylococcus aureus", "experiment": "Induction of morphological changes in Staphylococcus aureus ATCC43300 assessed as disruption of cell membrane by scanning electron microscopic analysis", "assay_type": "functional, organism-based"}, "Cell membrane [30]": {"test_system": "Cell membrane", "experiment": "Induction of cytoplasmic membrane depolarization in Staphylococcus aureus ATCC43300 assessed as increase in fluorescence intensity at 8 microg/ml measured after 24 mins by DiSC3(5) dye-based fluorescence assay", "details": "dose 8.0 µg/ml"}, "Cell membrane [31]": {"test_system": "Cell membrane", "experiment": "Induction of cytoplasmic membrane depolarization in Escherichia coli ATCC25922 assessed as increase in fluorescence intensity measured after 24 mins by DiSC3(5) dye-based fluorescence assay", "details": "dose 0.5-8 µg/ml"}, "Staphylococcus aureus [32]": {"test_system": "Staphylococcus aureus", "experiment": "Antibacterial activity against Staphylococcus aureus ATCC43300 infected in sepsis mouse model assessed as reduction in inflammatory cell infiltration in liver at 10 mg/kg pre-infected with bacteria for 1 hrs followed by compound administration at 12 hrs interval for 2 days by H and E staining based analysis", "assay_type": "functional, organism-based", "details": "time 2.0 day"}, "Staphylococcus aureus [33]": {"test_system": "Staphylococcus aureus", "experiment": "Induction of morphological changes in Staphylococcus aureus ATCC43300 assessed as collapse of cell membrane by scanning electron microscopic analysis", "assay_type": "functional, organism-based"}, "Escherichia coli [34]": {"test_system": "Escherichia coli", "experiment": "Antibiofilm activity against Escherichia coli ATCC25922 assessed as inhibition of biofilm formation at 1 microg/ml relative to control", "assay_type": "functional"}, "Cell membrane [35]": {"test_system": "Cell membrane", "experiment": "Disruption of cell membrane in Staphylococcus aureus ATCC43300 assessed as increase in protein leakage", "assay_type": "subcellular", "details": "dose 1-8 µg/ml"}}, "note": "Calls of active or inactive are those of the source. The calls are words filed in the database; no cut-off is given here.", "data": [{"smiles": "CCCCCCOc1cc[n+](CCCOc2ccc(/C=C/C(=O)c3ccc(OCCC[n+]4ccc(OCCCCCC)cc4)cc3)cc2)cc1.[Br-].[Br-]", "values": [{"measurement": "Activity", "setting": "Cell membrane [1]", "result": "Active"}, {"measurement": "fold change (FC)", "setting": "Cell membrane [2]", "result": 12}, {"measurement": "MIC", "setting": "Enterococcus faecalis", "result": 0.5, "unit": "µg/mL"}, {"measurement": "log(activity)", "setting": "Escherichia coli [3]", "result": 8.31}, {"measurement": "Activity", "setting": "Staphylococcus aureus [4]", "result": 100, "unit": "%"}, {"measurement": "Activity", "setting": "Cell membrane [5]", "result": "Dose-dependent-effect"}, {"measurement": "Activity", "setting": "Cell membrane [6]", "result": "Dose-dependent-effect"}, {"measurement": "MBC", "setting": "Escherichia coli [7]", "result": 8, "unit": "µg/mL"}, {"measurement": "fold change (FC)", "setting": "Cell membrane [8]", "result": 5.8}, {"measurement": "log(activity)", "setting": "Escherichia coli [9]", "result": 2.52}, {"measurement": "Activity", "setting": "Cell membrane [10]", "result": "Dose-dependent-effect"}, {"measurement": "Activity", "setting": "Escherichia coli [11]", "result": "Dose-dependent-effect"}, {"measurement": "viability at 16 microg/ml", "setting": "[12]", "result": "> 83", "unit": "%"}, {"measurement": "log(activity)", "setting": "Staphylococcus aureus [13]", "result": 1.61}, {"measurement": "Activity", "setting": "Staphylococcus aureus [14]", "result": ">35.94", "unit": "%"}, {"measurement": "Activity", "setting": "Cell membrane [15]", "result": "Active"}, {"measurement": "HC50", "setting": "[16]", "result": 329, "unit": "µg/mL"}, {"measurement": "fold change (FC)", "setting": "Cell membrane [17]", "result": 1.7}, {"measurement": "log(activity)", "setting": "Escherichia coli [18]", "result": 1.65}, {"measurement": "MIC", "setting": "Pseudomonas aeruginosa", "result": 32, "unit": "µg/mL"}, {"measurement": "Activity", "setting": "Escherichia coli [19]", "result": "Active"}, {"measurement": "Activity", "setting": "Staphylococcus aureus [20]", "result": "inactive"}, {"measurement": "Ratio", "setting": "[21]", "result": "<4"}, {"measurement": "MIC", "setting": "Staphylococcus aureus [22]", "result": 16, "unit": "µg/mL"}, {"measurement": "Ratio", "setting": "Staphylococcus aureus [23]", "result": 4}, {"measurement": "Activity", "setting": "Escherichia coli [24]", "result": "Active"}, {"measurement": "Activity", "setting": "Cell membrane [25]", "result": "Dose-dependent-effect"}, {"measurement": "Activity", "setting": "Cell membrane [26]", "result": "Not active; Fluorescence Intensity Remained Comparable To Negative Control"}, {"measurement": "selectivity ratio", "setting": "[27]", "result": 329}, {"measurement": "Ratio", "setting": "Staphylococcus aureus [28]", "result": "< 2"}, {"measurement": "Activity", "setting": "Staphylococcus aureus [29]", "result": "Active"}, {"measurement": "Activity", "setting": "Cell membrane [30]", "result": "Active; Fluorescence Intensity Surpassed The Melittin Group"}, {"measurement": "Activity", "setting": "Cell membrane [31]", "result": "Dose-dependent-effect"}, {"measurement": "Activity", "setting": "Staphylococcus aureus [32]", "result": "inactive"}, {"measurement": "Activity", "setting": "Staphylococcus aureus [33]", "result": "Active"}, {"measurement": "inhibition at 1 µg/mL", "setting": "Escherichia coli [34]", "result": 12.3, "unit": "%"}, {"measurement": "Activity", "setting": "Cell membrane [35]", "result": "Dose-dependent-effect"}]}]}
